Test results reported in US9056865B2, “Pyridine-2-derivatives as smoothened receptor modulators” (Pfizer Inc., priority 2010, dated 2015).

Experiments:
Gli-Luc/MEF cells = assay: Gli-Luc/MEF assay; format: cell-based, mouse; settings: Mus musculus, MEF; Shh-stimulated luciferase, 48 hours
Procedure, shortened: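 Mouse embryonic fibroblasts from Gli-Luc transgenic mice (luciferase under Gli response element) dosed with compounds (final […], 3-fold series), then stimulated with recombinant mouse Shh at final 2 μg/mL. After 48 h at 37 °C, luminescence read by Bright-Glo; IC50 from inhibition of Shh-induced signal.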

human Smo = human Smo (Homo sapiens (Human), UniProt Q99835); assay: Smo radioligand competition binding assay
human Smo, sequence (Q99835 181-787): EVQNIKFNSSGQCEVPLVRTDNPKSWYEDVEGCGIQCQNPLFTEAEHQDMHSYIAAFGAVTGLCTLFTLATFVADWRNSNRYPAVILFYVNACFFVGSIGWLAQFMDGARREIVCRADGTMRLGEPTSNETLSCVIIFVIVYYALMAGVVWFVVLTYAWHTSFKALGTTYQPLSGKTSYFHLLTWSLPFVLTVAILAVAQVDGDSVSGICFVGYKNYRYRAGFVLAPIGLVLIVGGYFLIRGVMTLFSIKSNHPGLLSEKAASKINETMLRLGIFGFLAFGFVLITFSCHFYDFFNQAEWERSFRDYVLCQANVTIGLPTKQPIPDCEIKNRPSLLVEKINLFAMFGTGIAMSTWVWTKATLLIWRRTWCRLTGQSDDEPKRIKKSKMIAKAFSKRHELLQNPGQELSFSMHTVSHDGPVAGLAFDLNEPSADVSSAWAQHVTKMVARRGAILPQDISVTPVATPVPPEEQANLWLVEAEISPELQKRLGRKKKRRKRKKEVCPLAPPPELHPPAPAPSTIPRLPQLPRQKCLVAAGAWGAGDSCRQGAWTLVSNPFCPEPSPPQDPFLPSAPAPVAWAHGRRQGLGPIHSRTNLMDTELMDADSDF
Procedure, shortened: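 Membranes from HEK293 cells expressing surface human Smo 181-781 (40 μg protein/well) incubated 2 h at room temperature with test compound and tritiated Smo antagonist (3 nM), pH 7.5 Tris buffer; filtration and scintillation counting. Non-specific binding defined with 30 μM cold antagonist; IC50 from four-parameter sigmoidal fit.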

SMILES: Cc1cnc(-c2cc(N3CCC(NC(=O)CN(C)C)CC3)ncc2Cl)c(C)c1 [Example A-114, N-(1-(5′-chloro-3,5-dimethyl-[2,4′-bipyridin]-2′-yl)piperidin-4-yl)-2-(dimethylamino)acetamide]
- IC50 (Gli-Luc/MEF cells): 3.86 nM
- IC50 (human Smo): 19.2 nM
- inhibition at 0.05 µM (human Smo; 0.05 μM test compound, read-out: Smo % inh. @ 0.05 μM): 94.5%
